Where a SMILES comes first, the peptide text is derived from it.

Usually Km stands for the concentration of substrate that gives half-maximal velocity. In general, Ki refers to a measure of affinity in units of concentration, obtained from inhibition or displacement.

For one series, the system named is protein phosphatase. As to the kind of experiment: Compound was evaluated for the Michaelis-Menten constant, Km in a generic protein phosphatase stopped assay system. The series is classed as ADME.
A short description of series [1]: Compound was evaluated for the Ki value for peptide alcohol for competitive inhibition in the presence of Mn2+ ions at pH 7.5. It counts as ADME.

Turning to `CC(=O)N[C@@H](CCCN=C(N)N)C(=O)N[C@@H](CCCN=C(N)N)C(=O)N[C@@H](C)C(=O)N[C@H](C(=O)N[C@H](C(=O)N[C@@H](C)C(=O)O)C(C)C)[C@@H](C)OP(=O)(O)O` (HELM PEPTIDE1{[ac].R.R.A.[C[C@@H](OP(=O)(O)O)[C@H](N[*:1])C(=O)[*:2]].V.A}$$$$V2.0), the Km in the series on protein phosphatase worked out at 3.7 mM. For the same molecule, the inhibitory constant (Ki) in series [1] came out at 1600 µM.

Turning to H-RRATVA-OH, in series [1], the Ki was above 30000 µM.

Source of the values: ChEMBL document CHEMBL1134186, “Protein phosphatase 1 catalyses the direct hydrolytic cleavage of phosphate monoester in a ternary complex mechanism” (Bioorg Med Chem Lett, 2001).
